In PMC13505187, “Fragment-Based Discovery of Fenamic Acids as Pan-Species Inhibitors of the Soluble Epoxide Hydrolase Phosphatase Domain” (ACS Chemical Biology, 2026):

How the values were obtained:
Type in all cases: biochemical
human sEH-NTD = target: T1, human sEH-NTD (Homo sapiens, UniProt P34913); test: FDP-based phosphatase assay, isolated N-terminal domain; details: phosphatase activity of the isolated N-terminal domain, FDP substrate, pH 5.75; mean ± SD, n = 3
T1 construct: made in house
T1 sequence (P34913 1-224 limits assumed): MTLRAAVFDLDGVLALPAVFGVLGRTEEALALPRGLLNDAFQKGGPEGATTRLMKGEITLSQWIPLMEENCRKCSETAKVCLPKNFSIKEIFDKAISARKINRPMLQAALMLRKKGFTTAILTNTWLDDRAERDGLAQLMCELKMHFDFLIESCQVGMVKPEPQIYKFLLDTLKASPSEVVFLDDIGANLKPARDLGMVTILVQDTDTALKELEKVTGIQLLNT
Experimental: (§1) The FDP assay was performed as published previously by Klingler et al. using frozen sEH-PD as well as full-length human, mouse, and rat sEH. In brief, the assay was performed in a black 96-well microplate in which 1 μL of compound in DMSO (or DMSO only in the case of the positive control) was mixed with 89 μL of protein solution (final concentration of 0.1 μM for sEH-PD, full-length human sEH, and full-length rat sEH and 0.01 μM for full-length mouse sEH) in phosphatase assay buffer (50 mM acetate, 10 mM MgCl2, pH 5.75) supplemented with 0.01% w/v Triton X-100. For the blank, assay buffer without protein was used. The plates were incubated at rt for 30 min to allow binding of the inhibitor. To start the reaction, 10 μL of FDP solution (10 μM final concentration) in assay buffer was added, and the fluorescence changes (λex = 485 nm, λem = 525 nm) were detected at 30 time points over the duration of 30 min using an Infinite F200 PRO plate reader (Tecan, Crailsheim, Germany). All samples were measured in triplicate. The percent inhibition was calculated relative to the activities of the blank well (without protein) and positive control well (without inhibitor).

human sEH-FL (P) = target: T2, human sEH-FL (P) (Homo sapiens, UniProt P34913); test: FDP-based phosphatase assay, full-length sEH; details: phosphatase activity of the full-length sEH protein, FDP substrate; mean ± SD, n = 3
T2 construct: The full-length human sEH was previously published by Lukin et al; made in house
T2 sequence (P34913 1-555): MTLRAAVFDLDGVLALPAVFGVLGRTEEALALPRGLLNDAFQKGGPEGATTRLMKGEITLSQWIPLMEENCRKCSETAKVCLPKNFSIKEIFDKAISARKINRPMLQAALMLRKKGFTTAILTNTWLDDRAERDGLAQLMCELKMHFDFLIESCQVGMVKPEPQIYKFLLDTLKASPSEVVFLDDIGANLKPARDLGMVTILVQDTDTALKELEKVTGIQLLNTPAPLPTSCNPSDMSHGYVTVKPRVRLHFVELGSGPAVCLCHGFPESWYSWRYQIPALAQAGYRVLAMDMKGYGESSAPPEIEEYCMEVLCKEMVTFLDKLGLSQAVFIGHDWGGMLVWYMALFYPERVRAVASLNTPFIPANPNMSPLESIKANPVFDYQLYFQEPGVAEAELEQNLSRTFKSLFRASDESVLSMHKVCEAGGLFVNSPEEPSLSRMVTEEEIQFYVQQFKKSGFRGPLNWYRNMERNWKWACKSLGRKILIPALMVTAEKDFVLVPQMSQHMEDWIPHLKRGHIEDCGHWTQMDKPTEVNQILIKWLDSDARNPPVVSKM
Experimental: as §1

rat sEH-FL (P) = target: T3, rat sEH-FL (P) (Rattus norvegicus, UniProt P80299); test: FDP-based phosphatase assay, full-length sEH; details: phosphatase activity of the full-length sEH protein, FDP substrate; mean ± SD, n = 3
T3 construct: using frozen sEH-PD as well as full-length human, mouse, and rat sEH
T3 sequence (P80299 1-554): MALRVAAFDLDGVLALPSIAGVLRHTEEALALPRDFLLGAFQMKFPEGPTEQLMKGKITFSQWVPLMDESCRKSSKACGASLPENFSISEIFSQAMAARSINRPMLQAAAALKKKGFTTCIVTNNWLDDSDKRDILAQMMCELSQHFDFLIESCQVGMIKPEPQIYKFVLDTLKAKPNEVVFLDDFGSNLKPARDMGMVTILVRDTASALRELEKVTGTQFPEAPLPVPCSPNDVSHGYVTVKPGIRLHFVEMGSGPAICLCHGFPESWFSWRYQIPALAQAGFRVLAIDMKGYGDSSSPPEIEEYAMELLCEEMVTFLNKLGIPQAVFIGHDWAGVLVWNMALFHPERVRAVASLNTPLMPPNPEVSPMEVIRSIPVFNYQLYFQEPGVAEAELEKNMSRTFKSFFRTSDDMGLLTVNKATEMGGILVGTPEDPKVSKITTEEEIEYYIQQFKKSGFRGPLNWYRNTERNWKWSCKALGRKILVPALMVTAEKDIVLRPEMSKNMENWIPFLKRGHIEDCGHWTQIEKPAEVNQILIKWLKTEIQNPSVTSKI
Experimental: as §1

human sEH-FL (H) = target: T4, human sEH-FL (H) (Homo sapiens, UniProt P34913); test: PHOME-based hydrolase assay, full-length sEH; details: hydrolase activity of the full-length sEH protein, PHOME substrate; mean ± SD, n = 3
T4 construct: The full-length human sEH was previously published by Lukin et al; made in house
T4 sequence (P34913 1-555): T2 sequence (P34913 1-555)
Experimental: The fluorescence-based sEH hydrolase activity assay was performed as described previously in a 96-well format with some minor modifications. In short, full-length sEH (3 nM final concentration for all tested proteins) was dissolved in hydrolase assay buffer (Bis-Tris buffer, pH 7) supplemented with 0.1 mg mL^–1 BSA as well as Triton-X 100 to a final concentration of 0.01%. Protein solution (89 μL) was incubated with 1 μL of different concentrations of compounds (final DMSO concentration 1%) for 30 min at rt. The reaction was started by addition of 10 μL of a cyano­(6-methoxy-2-naphthalenyl)­methyl 3-phenyloxiran-2-ylacetate (PHOME) solution (final concentration of 50 μM). Hydrolysis of the nonfluorescent substrate by sEH to release fluorescent 6-methoxynaphthaldehyde was measured (λex = 330 nm, λem = 465 nm) using a Tecan Infinite F200PRO plate reader. The reaction was monitored over a duration of 45 min (one point every minute). A blank control (no protein and no compound) and a positive control (no compound) were carried out as well. All measurements were performed in triplicate.

Compound `O=C(O)CCCc1nc(-c2ccc(Cl)c(Cl)c2)c(-c2ccccc2)o1` [Compound 2] has an IC50 (human sEH-NTD) of 0.058 ± 0.005 µM, an IC50 (human sEH-FL (P)) of 4 ± 1 µM and an IC50 (rat sEH-FL (P)) of 2.8 ± 2.2 µM. For the same compound, the IC50 (human sEH-FL (H)) was 9.5 ± 0.5 µM.
